Tested on: 362531-283-R-J2-PDC complex spheroid viability
Test: Anticancer human tumor 362531-283-R-J2-PDC patient-derived colon adenocarcinoma cell line growth inhibition [RAS]
Conditions: for viability, T/C: stronger effect = lower value
Text: RAS pathway inhibitors in Combinations in Complex Spheroids
A high-throughput screen of multi-cell type tumor spheroids was designed to identify active combinations of RAS pathway inhibitors and targeted small molecules. Complex spheroids include a stromal component modeled by human endothelial cells (HUVEC) and fibroblasts modeled by human mesenchymal stem cells (MSCs). The concentration ranges selected for each drug and investigational agent were based upon clinically achievable concentrations if the clinical Cmax of the agent was known.
Compounds. The drugs and investigational agents: abemaciclib (NSC768073), cobimetinib (NSC768068), divarasib (GDC6063, NSC841802), docetaxel (NSC628503), GDC-1971 (RLY-1971, NSC841576), gemcitabine (NSC613327), inavolisib (NSC800729), ipatasertib (NSC767898), KB-0742 (NSC834161), MRTX-1133 (NSC836407), osimertinib (NSC779217), RMC-4630 (NSC839698), RMC-6236 (NSC851965), RMC-6291 (NSC852671), Ro-3306 (NSC812927), sapanisertib (NSC764658), SN-38 (NSC673596), staurosporine (NSC755774), SY5609 (NSC837396), and tovorafenib (DAY101, NSC766906), were obtained from the National Cancer Institute (NCI) Developmental Therapeutics Program Chemical Repository. The FDA-approved anticancer drug set is available from the NCI Developmental Therapeutics Program. […] The stock solutions were prepared in dimethyl sulfoxide (DMSO, Sigma-Aldrich, St. Louis, MO, cat. D2650) at 800-fold the tested concentration and stored at -70 degrees C prior to their use. All drugs and investigational agents were tested over a range starting from a high concentration at or near the clinical Cmax and decreasing in half-log increments. If the clinical Cmax for an agent had not been determined, the highest concentration tested was 10 microM.
Cell Culture. All cells were maintained in an incubator at 37 degrees C and 5% CO2 with 95% humidity. The PDC lines were cultured according to standard operating procedures established by the NCI PDMR. All PDCs were thawed and cultured in Matrigel-coated flasks prepared with a working solution of 1X Ham's F-12 nutrient mix, without supplementation (Invitrogen, Waltham, MA, cat. 11765054), 100 U/mL penicillin-streptomycin (Invitrogen, cat. 15140122), and 2.5% Matrigel (Corning Inc., Corning, NY, cat. 354248) for the first three passages. The 362531-283-R-J2-PDC and 782815-120-R-J1-PDC lines were cultured in 6C/Colon 1B media, which includes advanced DMEM/F-12 (Thermo Fisher Scientific, cat. 12634028), 10 mM HEPES (Thermo Fisher Scientific, cat. 15630080), 1X GlutaMAX supplement (Thermo Fisher Scientific, cat. 35050061), 0.1 mg/mL primocin (InvivoGen, San Diego, CA, cat. ant-pm-2), 10% defined fetal bovine serum, heat inactivated (HyClone Laboratories Inc., Logan, UT, cat. SH30070.03HI), 50% L-WRN conditioned media (ATCC, cat. CRL-3276), 1.25 mM N-Acetyl-L-cysteine (Sigma-Aldrich, cat. A9165), 10 mM nicotinamide (Sigma-Aldrich, cat. N0636), 1X B-27 supplement (Thermo Fisher Scientific, cat. 17504044), 1X N-2 supplement (Thermo Fisher Scientific, cat. 17502048), 50 ng/mL human EGF (Thermo Fisher Scientific, cat. PHG0311), and 10 microM Y-27632 dihydrochloride (Tocris Bioscience, cat. 1254). The K12877-001-R-J1-PDC line was cultured in 6I media, which includes all 6C/Colon 1B media plus 10 ng/mL human FGF-10 (PeproTech, cat. 100-26), 1 ng/mL human FGF-2 (PeproTech, cat. 100-18B), 1 µM prostaglandin E2 (Tocris Bioscience, cat. 2296), […] hydrocortisone (Sigma-Aldrich, cat. H4001), and […] bovine insulin (Sigma-Aldrich, cat. I6634). The K86415-001-R-J1-PDC line was cultured in 6D media, which includes all 6C/Colon 1B media components minus the L-WRN conditioned media. The 485176-168-R4-J1-PDC was cultured in PANC media, which includes all 6C/Colon 1B media plus 100 ng/mL human FGF-10 (PeproTech, cat. 100-26), 500 nM SB-431542 (Selleckchem, cat. S1067), and 10 nM gastrin (Tocris Bioscience, cat. 3006). […]

[1] = curve of first compound, second compound 0.000949 µM
[2] = curve of first compound, second compound 0.003 µM
[3] = curve of first compound, second compound 0.00949 µM
[4] = curve of first compound, second compound 0.03 µM
[5] = curve of first compound, second compound 0.0949 µM
[6] = curve of first compound, second compound 0.3 µM
[7] = second compound 0.000949 µM, first compound 0.00316 µM
[8] = second compound 0.000949 µM, first compound 0.01 µM
[9] = second compound 0.000949 µM, first compound 0.0316 µM
[10] = second compound 0.000949 µM, first compound 0.1 µM
[11] = second compound 0.000949 µM, first compound 0.316 µM
[12] = second compound 0.000949 µM, first compound 1 µM
[13] = second compound 0.003 µM, first compound 0.00316 µM
[14] = second compound 0.003 µM, first compound 0.01 µM
[15] = second compound 0.003 µM, first compound 0.0316 µM
[16] = second compound 0.003 µM, first compound 0.1 µM
[17] = second compound 0.003 µM, first compound 0.316 µM
[18] = second compound 0.003 µM, first compound 1 µM
[19] = second compound 0.00949 µM, first compound 0.00316 µM
[20] = second compound 0.00949 µM, first compound 0.01 µM
[21] = second compound 0.00949 µM, first compound 0.0316 µM
[22] = second compound 0.00949 µM, first compound 0.1 µM
[23] = second compound 0.00949 µM, first compound 0.316 µM
[24] = second compound 0.00949 µM, first compound 1 µM
[25] = second compound 0.03 µM, first compound 0.00316 µM
[26] = second compound 0.03 µM, first compound 0.01 µM
[27] = second compound 0.03 µM, first compound 0.0316 µM
[28] = second compound 0.03 µM, first compound 0.1 µM
[29] = second compound 0.03 µM, first compound 0.316 µM
[30] = second compound 0.03 µM, first compound 1 µM
[31] = second compound 0.0949 µM, first compound 0.00316 µM
[32] = second compound 0.0949 µM, first compound 0.01 µM
[33] = second compound 0.0949 µM, first compound 0.0316 µM
[34] = second compound 0.0949 µM, first compound 0.1 µM
[35] = second compound 0.0949 µM, first compound 0.316 µM
[36] = second compound 0.0949 µM, first compound 1 µM
[37] = second compound 0.3 µM, first compound 0.00316 µM
[38] = second compound 0.3 µM, first compound 0.01 µM
[39] = second compound 0.3 µM, first compound 0.0316 µM
[40] = second compound 0.3 µM, first compound 0.1 µM
[41] = second compound 0.3 µM, first compound 0.316 µM
[42] = second compound 0.3 µM, first compound 1 µM
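Further: spheroids exposed to the agents for 7 days before readout.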
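Wherever viability, T/C is given: luminescence viability as percent of DMSO vehicle control wells.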

`C=CC(=O)N1CCN(c2nc(OCC3CCCN3C)nc3c(F)c(-c4nc(N)cc(C)c4C(F)(F)F)c(Cl)cc23)C(C)C1` (stereo unspecified) + CCn1c(-c2cc(N3CCN(C)CC3)cnc2C(C)OC)c2c3cc(ccc31)-c1csc(n1)CC(NC(=O)C1CC1C)C(=O)N1CCCC(N1)C(=O)OCC(C)(C)C2 was tested, and the IC50 [1] was greater than 1000 nM, the IC50 [2] was greater than 1000 nM and the IC50 [3] was greater than 1000 nM. For the same molecule, the IC50 [4] was greater than 1000 nM, the IC50 [5] was greater than 1000 nM and the IC50 [6] was less than 3.16 nM. For the same molecule, the viability, T/C [7] was 101%, the viability, T/C [8] was 100% and the viability, T/C [9] was 107%. For the same molecule, the viability, T/C [10] was 92.5%, the viability, T/C [11] was 94.3% and the viability, T/C [12] was 103%. It also gave a viability, T/C [13] of 107%, a viability, T/C [14] of 103% and a viability, T/C [15] of 97%. It also gave a viability, T/C [16] of 92%, a viability, T/C [17] of 104% and a viability, T/C [18] of 91.7%. For the same molecule, the viability, T/C [19] was 93.7%, the viability, T/C [20] was 108% and the viability, T/C [21] was 104%. It also gave a viability, T/C [22] of 99.1%, a viability, T/C [23] of 108% and a viability, T/C [24] of 106%. The viability, T/C [25] was 87.8%, the viability, T/C [26] was 104% and the viability, T/C [27] was 86.8%. For the same molecule, the viability, T/C [28] was 81.1%, the viability, T/C [29] was 95.7% and the viability, T/C [30] was 101%. It also gave a viability, T/C [31] of 88%, a viability, T/C [32] of 87.5% and a viability, T/C [33] of 81.2%. The viability, T/C [34] was 80.3%, the viability, T/C [35] was 75.5% and the viability, T/C [36] was 90.5%. The viability, T/C [37] was 43%, the viability, T/C [38] was 57% and the viability, T/C [39] was 41.2%. For the same molecule, the viability, T/C [40] was 45.9%, the viability, T/C [41] was 45.9% and the viability, T/C [42] was 35%.

For `O=C(c1ccc(F)c(F)c1Nc1ccc(I)cc1F)N1CC(O)([C@@H]2CCCCN2)C1` + CCn1c(-c2cccnc2C(C)OC)c2c3cc(ccc31)N1CCOC(CC(NC(=O)C(C(C)C)N(C)C(=O)C3(F)CCN(C(=O)C#CC(C)(C)N(C)C)CC3)C(=O)N3CCCC(N3)C(=O)OCC(C)(C)C2)C1, the IC50 [1] was 628 nM, the IC50 [2] was 537 nM and the IC50 [3] was 573 nM. It also gave an IC50 [4] of 684 nM, an IC50 [5] of 580 nM and an IC50 [6] of 604 nM. It also gave a viability, T/C [7] of 94%, a viability, T/C [8] of 94.9% and a viability, T/C [9] of 101%. It also gave a viability, T/C [10] of 91.3%, a viability, T/C [11] of 88% and a viability, T/C [12] of 24.4%. For the same molecule, the viability, T/C [13] was 102%, the viability, T/C [14] was 108% and the viability, T/C [15] was 107%. The viability, T/C [16] was 83.2%, the viability, T/C [17] was 81.8% and the viability, T/C [18] was 18.4%. It also gave a viability, T/C [19] of 86%, a viability, T/C [20] of 108% and a viability, T/C [21] of 102%. It also gave a viability, T/C [22] of 88.8%, a viability, T/C [23] of 82.1% and a viability, T/C [24] of 20.9%. It also gave a viability, T/C [25] of 97.7%, a viability, T/C [26] of 98.6% and a viability, T/C [27] of 104%. For the same molecule, the viability, T/C [28] was 91.2%, the viability, T/C [29] was 99% and the viability, T/C [30] was 26.4%. It also gave a viability, T/C [31] of 105%, a viability, T/C [32] of 103% and a viability, T/C [33] of 103%. For the same molecule, the viability, T/C [34] was 81.8%, the viability, T/C [35] was 86.8% and the viability, T/C [36] was 22.3%. The viability, T/C [37] was 89%, the viability, T/C [38] was 90.8% and the viability, T/C [39] was 99%. It also gave a viability, T/C [40] of 82%, a viability, T/C [41] of 88.2% and a viability, T/C [42] of 20.3%.

In the case of `C=CC(=O)Nc1cc(Nc2nccc(-c3cn(C)c4ccccc34)n2)c(OC)cc1N(C)CCN(C)C`, the viability, T/C (compound 0.00316 µM) is reported as 98.8% [middle of 4 runs], the viability, T/C (compound 0.01 µM) is reported as 92.5% [middle of 4 runs] and the viability, T/C (compound 0.0316 µM) is reported as 101% [middle of 4 runs]. For the same molecule, the viability, T/C (compound 0.1 µM) was 101% [middle of 4 runs], the viability, T/C (compound 0.316 µM) was 96.5% [middle of 4 runs] and the viability, T/C (compound 1 µM) was 85.1% [middle of 4 runs]. It also gave an IC50 (curve of compound) greater than 1000 nM.

From PubChem BioAssay AID2060909 (Molecular Pharmacology Branch, DTP, NCI, 2025)
